Reference: patent US12138256B2, “Treatment of cardiopulmonary disorders” (Bayer Aktiengesellschaft, priority 2021, dated 2024)
Values joined by “and” are separate entries in the source; they are usually repeats but may differ in a detail not shown here. Equal entries are not always repeated.

Test system: thromboxane analog U46619 induced PAH in minipigs
Experiment: Haemodynamics (PAP, BP) in the anesthetized thromboxane challenged PAH minipig after inhaled (nebulized) application (C-2.1)
Type: in vivo, Göttingen minipig
Conditions: for PAP % change vs. baseline / PAP % changes vs prevalue, mean / BP % change vs. baseline: 100 μg/kg nominal dose; for PAP % change vs. baseline / BP % change vs. baseline: individual animals; for PAP % changes vs prevalue, mean: n = 3; for % changes in BP vs baseline / % changes in PAP vs baseline: inhaled 30 μg/kg
Outline: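 Anesthetized, ventilated Göttingen minipigs (2-6 kg) given continuous infusion (0.3-0.75 μg/kg/min) to raise mean PAP above 25 mmHg, dosing starting after a 30 min plateau. Compound in 1% DMSO/0.2% citric acid, pH 8, nebulized via Aeroneb Pro into the inspiratory arm (~7 min; stock 300 μg/kg). PAP by Swan-Ganz catheter, BP via carotid catheter.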

O=C(O)c1ccc(CCN(CCc2ccccc2OCc2ccc(-c3ccc(C(F)(F)F)cc3)cc2Cl)[C@H]2CCCc3nc(C(=O)O)ccc32)cc1 [comparative example 11, (5S)-5-{[2-(4-carboxyphenyl)ethyl][2-(2-{[3-chloro-4′-(trifluoromethyl)[biphenyl]-4-yl]methoxy}phenyl)ethyl]amino}-5,6,7,8-tetrahydroquinoline-2-carboxylic acid]
PAP % change vs. baseline (inhaled, time 190 min): 77.0% and 61.7% and 68.1%
PAP % changes vs prevalue, mean (inhaled, time 190 min): −30.5%
BP % change vs. baseline (inhaled, time 200 min): 99.9% and 90.4% and 98.2%
PAP % change vs. baseline (inhaled, time 200 min): 77.0% and 62.5% and 68.2%
PAP % changes vs prevalue, mean (inhaled, time 200 min): −30.9%
BP % change vs. baseline (inhaled, time 210 min): 98.8% and 90.4% and 97.3%
PAP % change vs. baseline (inhaled, time 210 min): 76.5% and 62.0% and 67.9%
PAP % changes vs prevalue, mean (inhaled, time 210 min): −30.6%
BP % change vs. baseline (inhaled, time 220 min): 101.0% and 90.4% and 97.3%
PAP % change vs. baseline (inhaled, time 220 min): 77.2% and 61.2% and 68.1%
PAP % changes vs prevalue, mean (inhaled, time 220 min): −31.6%
BP % change vs. baseline (inhaled, time 230 min): 99.9% and 90.4% and 96.3%
PAP % change vs. baseline (inhaled, time 230 min): 76.3% and 61.2% and 67.7%
PAP % changes vs prevalue, mean (inhaled, time 230 min): −31.2%
BP % change vs. baseline (inhaled, time 240 min): 98.8% and 89.5% and 95.4%
PAP % change vs. baseline (inhaled, time 240 min): 76.5% and 62.5% and 67.8%
PAP % changes vs prevalue, mean (inhaled, time 240 min): −31.0%
BP % change vs. baseline (inhaled, time 250 min): 98.8% and 89.5% and 95.4%
PAP % change vs. baseline (inhaled, time 250 min): 77.6% and 63.0% and 69.1%
BP % change vs. baseline (inhaled, time 260 min): 97.7% and 87.7% and 95.4%
PAP % change vs. baseline (inhaled, time 260 min): 77.4% and 62.0% and 67.4%
BP % change vs. baseline (inhaled, time 270 min): 96.6% and 86.8% and 99.2%
PAP % change vs. baseline (inhaled, time 270 min): 77.5% and 61.5% and 67.9%
BP % change vs. baseline (inhaled, time 280 min): 96.6% and 86.8% and 96.3%
PAP % change vs. baseline (inhaled, time 280 min): 77.5% and 63.0% and 68.1%
BP % change vs. baseline (inhaled, time 290 min): 97.7% and 86.8% and 94.4%
PAP % change vs. baseline (inhaled, time 290 min): 77.3% and 62.5% and 67.8%
BP % change vs. baseline (inhaled, time 300 min): 96.6% and 85.1% and 93.4%
PAP % change vs. baseline (inhaled, time 300 min): 78.1% and 63.0% and 67.3%
BP % change vs. baseline (inhaled, time 310 min): 95.5% and 83.3% and 93.4%
PAP % change vs. baseline (inhaled, time 310 min): 76.7% and 60.5% and 68.1%
BP % change vs. baseline (inhaled, time 320 min): 95.5% and 81.6% and 92.5%
PAP % change vs. baseline (inhaled, time 320 min): 75.6% and 63.2% and 67.7%
BP % change vs. baseline (inhaled, time 330 min): 95.5% and 79.8% and 92.5%
PAP % change vs. baseline (inhaled, time 330 min): 76.5% and 63.0% and 67.6%
duration of action compared to Ventavis (PAH minipig model, inhaled): more than 6 times
time of maximum effect on PAP (after inhaled application (nebulization), comparative example 11 30 μg/kg, Cinaciguat 3 and 10 μg/kg, Riociguat 100 μg/kg, comparative example 3 30 μg/kg): around 60 min
% changes in BP vs baseline (0 min vs. start inhalation): 99%
% changes in PAP vs baseline (0 min vs. start inhalation): 100% and 99%
% changes in BP vs baseline (10 min vs. start inhalation): 99% and 100%
% changes in PAP vs baseline (10 min vs. start inhalation): 102% and 99%
% changes in BP vs baseline (20 min vs. start inhalation): 96% and 98%
% changes in PAP vs baseline (20 min vs. start inhalation): 101% and 97%
% changes in BP vs baseline (30 min vs. start inhalation): 94% and 95%
% changes in PAP vs baseline (30 min vs. start inhalation): 101% and 97%
% changes in BP vs baseline (40 min vs. start inhalation): 91%
% changes in PAP vs baseline (40 min vs. start inhalation): 100% and 97%
% changes in BP vs baseline (50 min vs. start inhalation): 89% and 90%
% changes in PAP vs baseline (50 min vs. start inhalation): 102% and 96%
% changes in BP vs baseline (60 min vs. start inhalation): 86% and 88%
% changes in PAP vs baseline (60 min vs. start inhalation): 101% and 96%
% changes in BP vs baseline (70 min vs. start inhalation): 86% and 85%
% changes in PAP vs baseline (70 min vs. start inhalation): 103% and 95%
% changes in BP vs baseline (80 min vs. start inhalation): 85% and 86%
% changes in PAP vs baseline (80 min vs. start inhalation): 101% and 94%
% changes in BP vs baseline (90 min vs. start inhalation): 85%
% changes in PAP vs baseline (90 min vs. start inhalation): 102% and 94%
% changes in BP vs baseline (100 min vs. start inhalation): 85% and 84%
% changes in PAP vs baseline (100 min vs. start inhalation): 103% and 92%
% changes in BP vs baseline (110 min vs. start inhalation): 84%
% changes in PAP vs baseline (110 min vs. start inhalation): 102% and 94%
% changes in BP vs baseline (120 min vs. start inhalation): 85% and 84%
% changes in PAP vs baseline (120 min vs. start inhalation): 101% and 92%
% changes in BP vs baseline (130 min vs. start inhalation): 85%
% changes in PAP vs baseline (130 min vs. start inhalation): 102% and 95%
% changes in BP vs baseline (140 min vs. start inhalation): 85%
% changes in PAP vs baseline (140 min vs. start inhalation): 101% and 95%
% changes in BP vs baseline (150 min vs. start inhalation): 84%
% changes in PAP vs baseline (150 min vs. start inhalation): 100% and 92%
% changes in BP vs baseline (160 min vs. start inhalation): 85% and 84%
% changes in PAP vs baseline (160 min vs. start inhalation): 100% and 91%
% changes in BP vs baseline (170 min vs. start inhalation): 86% and 85%
% changes in PAP vs baseline (170 min vs. start inhalation): 101% and 91%
% changes in BP vs baseline (180 min vs. start inhalation): 86%
% changes in PAP vs baseline (180 min vs. start inhalation): 101% and 91%
% changes in BP vs baseline (190 min vs. start inhalation): 86% and 84%
% changes in PAP vs baseline (190 min vs. start inhalation): 101% and 91%
% changes in BP vs baseline (200 min vs. start inhalation): 87% and 83%
% changes in PAP vs baseline (200 min vs. start inhalation): 101% and 90%
% changes in BP vs baseline (210 min vs. start inhalation): 88% and 84%
% changes in PAP vs baseline (210 min vs. start inhalation): 101% and 91%
% changes in BP vs baseline (220 min vs. start inhalation): 87%
% changes in PAP vs baseline (220 min vs. start inhalation): 99% and 92%
% changes in BP vs baseline (230 min vs. start inhalation): 89% and 86%
% changes in PAP vs baseline (230 min vs. start inhalation): 102% and 91%
% changes in BP vs baseline (240 min vs. start inhalation): 88% and 85%
% changes in PAP vs baseline (240 min vs. start inhalation): 99% and 92%
% changes in BP vs baseline (−5 min vs. start inhalation): 101% and 96%
% changes in PAP vs baseline (−5 min vs. start inhalation): 99%
effect on systemic BP (inhaled, 30 μg/kg): did not show any decrease on systemic BP
lung selectivity (inhaled, nominal dose of 100 μg/kg): good lung selectivity
duration of action (inhaled, Ventavis 10 μg/kg nominal dose, comparative example 11 10, 30 and 100 μg/kg nominal dose, 240 min observation interval): ≥ 240 min
